Publication PMC11830721 (Frontiers in Pharmacology, 2025)

Experiments:
Experiment in all cases: SelectScreen kinase selectivity assay
Assay type in all cases: biochemical
Conditions in all cases: ten-dose 0.25–128 μM
EPHB4 = EPHB4 (Homo sapiens, UniProt P54760)
Experimental: (§1) Following the standardized kinase activity assay protocol as previously reported, we utilized the SelectScreen Kinase Profiling Service (Thermo Fisher Scientific) to determine the kinase selectivity profile of FLIN-4 ([van der Wel et al., 2020]). Through a ten-dose dilution series ranging from 0.25 μM to 128 μM in dose-response experiments, we precisely measured the inhibitory effect of FLIN-4 on the substrate phosphorylation reactions catalyzed by a panel of kinases, and thus ascertained the half-maximal inhibitory concentrations (IC50) for each kinase.

BLK = BLK (Homo sapiens, UniProt P51451)
Experimental: as §1

RAF1 = RAF1 (Homo sapiens, UniProt P04049, Y340D/Y341D)
RAF1, sequence (P04049 306-648 Y340D/Y341D limits assumed): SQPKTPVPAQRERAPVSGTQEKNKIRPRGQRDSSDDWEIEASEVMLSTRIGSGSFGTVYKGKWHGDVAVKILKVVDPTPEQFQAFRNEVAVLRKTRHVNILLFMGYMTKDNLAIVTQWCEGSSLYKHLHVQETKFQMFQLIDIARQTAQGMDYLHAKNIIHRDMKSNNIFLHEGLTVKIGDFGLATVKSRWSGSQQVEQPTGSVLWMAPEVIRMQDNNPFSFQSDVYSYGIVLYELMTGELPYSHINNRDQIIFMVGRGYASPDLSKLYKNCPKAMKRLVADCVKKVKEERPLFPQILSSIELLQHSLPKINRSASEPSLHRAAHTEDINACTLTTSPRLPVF
Experimental: as §1

ERBB2 = ERBB2 (Homo sapiens, UniProt P04626)
Experimental: as §1

DDR2 = DDR2 (Homo sapiens, UniProt Q16832)
Experimental: as §1

MUSK = MUSK (Homo sapiens, UniProt O15146)
MUSK, sequence (O15146 24-869): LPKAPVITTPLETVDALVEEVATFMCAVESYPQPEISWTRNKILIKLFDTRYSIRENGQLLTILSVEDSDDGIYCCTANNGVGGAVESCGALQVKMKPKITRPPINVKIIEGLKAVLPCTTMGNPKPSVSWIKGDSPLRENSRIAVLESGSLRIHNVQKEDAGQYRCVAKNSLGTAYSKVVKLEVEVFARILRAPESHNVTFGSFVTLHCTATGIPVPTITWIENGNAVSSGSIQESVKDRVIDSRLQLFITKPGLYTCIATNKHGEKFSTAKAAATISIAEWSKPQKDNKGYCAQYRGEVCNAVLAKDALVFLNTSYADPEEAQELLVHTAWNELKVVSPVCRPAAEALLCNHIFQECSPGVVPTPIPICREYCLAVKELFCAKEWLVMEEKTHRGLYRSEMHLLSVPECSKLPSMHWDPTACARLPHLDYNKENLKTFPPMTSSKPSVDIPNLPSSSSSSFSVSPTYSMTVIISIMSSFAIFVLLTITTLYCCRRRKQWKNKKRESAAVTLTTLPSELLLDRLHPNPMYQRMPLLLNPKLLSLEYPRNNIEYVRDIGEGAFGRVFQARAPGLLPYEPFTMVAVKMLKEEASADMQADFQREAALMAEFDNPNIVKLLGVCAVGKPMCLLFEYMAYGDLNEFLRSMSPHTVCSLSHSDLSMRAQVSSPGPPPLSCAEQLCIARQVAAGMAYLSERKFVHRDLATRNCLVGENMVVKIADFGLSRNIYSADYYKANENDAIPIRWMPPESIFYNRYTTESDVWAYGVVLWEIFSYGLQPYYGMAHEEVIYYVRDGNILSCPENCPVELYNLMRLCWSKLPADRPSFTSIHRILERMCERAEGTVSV
Experimental: as §1

BTK = BTK (Homo sapiens, UniProt Q06187)
BTK, sequence (Q06187 whole entry): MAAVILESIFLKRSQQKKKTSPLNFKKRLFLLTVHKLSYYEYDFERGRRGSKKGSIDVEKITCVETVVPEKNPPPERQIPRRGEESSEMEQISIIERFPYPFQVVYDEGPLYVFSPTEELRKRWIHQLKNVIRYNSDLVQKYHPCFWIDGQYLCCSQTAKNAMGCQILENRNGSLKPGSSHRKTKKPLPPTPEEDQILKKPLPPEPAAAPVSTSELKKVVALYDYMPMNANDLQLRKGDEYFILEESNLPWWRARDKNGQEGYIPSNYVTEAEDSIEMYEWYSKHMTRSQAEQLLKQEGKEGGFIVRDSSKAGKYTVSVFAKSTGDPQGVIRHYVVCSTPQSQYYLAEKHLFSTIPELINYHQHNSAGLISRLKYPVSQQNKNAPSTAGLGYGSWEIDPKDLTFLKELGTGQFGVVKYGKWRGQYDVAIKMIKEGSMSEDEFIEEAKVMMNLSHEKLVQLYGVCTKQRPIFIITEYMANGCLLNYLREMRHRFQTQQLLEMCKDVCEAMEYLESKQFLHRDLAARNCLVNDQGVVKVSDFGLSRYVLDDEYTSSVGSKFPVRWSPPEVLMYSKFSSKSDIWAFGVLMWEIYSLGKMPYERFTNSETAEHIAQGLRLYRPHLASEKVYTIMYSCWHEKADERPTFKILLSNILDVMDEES
Experimental: as §1

FES = FES (Homo sapiens, UniProt P07332)
Experimental: as §1

JAK3 = JAK3 (Homo sapiens, UniProt P52333)
Experimental: as §1

HCK = HCK (Homo sapiens, UniProt P08631)
Experimental: as §1

YES1 = YES1 (Homo sapiens, UniProt P07947)
Experimental: as §1

ALK = ALK (Homo sapiens, UniProt Q9UM73)
Experimental: as §1

EPHA3 = EPHA3 (Homo sapiens, UniProt P29320)
EPHA3, sequence (P29320 21-983): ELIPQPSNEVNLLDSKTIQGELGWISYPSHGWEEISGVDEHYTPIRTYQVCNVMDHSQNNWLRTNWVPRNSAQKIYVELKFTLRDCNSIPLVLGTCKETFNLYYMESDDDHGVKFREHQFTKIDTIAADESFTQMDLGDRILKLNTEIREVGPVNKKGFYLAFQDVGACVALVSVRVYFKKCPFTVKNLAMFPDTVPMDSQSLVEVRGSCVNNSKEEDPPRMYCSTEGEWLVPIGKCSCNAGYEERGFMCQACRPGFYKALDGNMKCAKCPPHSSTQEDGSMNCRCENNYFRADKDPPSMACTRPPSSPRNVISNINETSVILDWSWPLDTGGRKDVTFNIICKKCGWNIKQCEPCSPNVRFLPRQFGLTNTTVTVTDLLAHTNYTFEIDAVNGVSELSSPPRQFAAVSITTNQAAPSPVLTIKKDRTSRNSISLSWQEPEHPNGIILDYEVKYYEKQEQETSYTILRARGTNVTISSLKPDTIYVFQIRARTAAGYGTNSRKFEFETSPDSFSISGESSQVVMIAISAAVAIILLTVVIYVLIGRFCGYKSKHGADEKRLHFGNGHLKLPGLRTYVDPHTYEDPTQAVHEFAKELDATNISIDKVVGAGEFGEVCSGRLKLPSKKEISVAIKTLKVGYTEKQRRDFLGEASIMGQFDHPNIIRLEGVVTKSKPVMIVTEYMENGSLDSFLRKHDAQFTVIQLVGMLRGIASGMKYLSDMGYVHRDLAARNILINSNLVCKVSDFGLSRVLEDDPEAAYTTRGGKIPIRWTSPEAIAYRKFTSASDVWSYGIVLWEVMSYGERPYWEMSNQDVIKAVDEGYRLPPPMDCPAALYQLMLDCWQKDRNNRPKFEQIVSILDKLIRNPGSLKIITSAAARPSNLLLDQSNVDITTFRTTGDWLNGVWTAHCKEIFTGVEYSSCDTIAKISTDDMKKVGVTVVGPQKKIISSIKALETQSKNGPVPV
Experimental: as §1

KIT = KIT (Homo sapiens, UniProt P10721)
Experimental: as §1

FRK = FRK (Homo sapiens, UniProt P42685)
Experimental: as §1

ROS1 = ROS1 (Homo sapiens, UniProt P08922)
Experimental: as §1

ZAK = ZAK (Homo sapiens, UniProt Q9NYL2)
ZAK, sequence (Q9NYL2 whole entry): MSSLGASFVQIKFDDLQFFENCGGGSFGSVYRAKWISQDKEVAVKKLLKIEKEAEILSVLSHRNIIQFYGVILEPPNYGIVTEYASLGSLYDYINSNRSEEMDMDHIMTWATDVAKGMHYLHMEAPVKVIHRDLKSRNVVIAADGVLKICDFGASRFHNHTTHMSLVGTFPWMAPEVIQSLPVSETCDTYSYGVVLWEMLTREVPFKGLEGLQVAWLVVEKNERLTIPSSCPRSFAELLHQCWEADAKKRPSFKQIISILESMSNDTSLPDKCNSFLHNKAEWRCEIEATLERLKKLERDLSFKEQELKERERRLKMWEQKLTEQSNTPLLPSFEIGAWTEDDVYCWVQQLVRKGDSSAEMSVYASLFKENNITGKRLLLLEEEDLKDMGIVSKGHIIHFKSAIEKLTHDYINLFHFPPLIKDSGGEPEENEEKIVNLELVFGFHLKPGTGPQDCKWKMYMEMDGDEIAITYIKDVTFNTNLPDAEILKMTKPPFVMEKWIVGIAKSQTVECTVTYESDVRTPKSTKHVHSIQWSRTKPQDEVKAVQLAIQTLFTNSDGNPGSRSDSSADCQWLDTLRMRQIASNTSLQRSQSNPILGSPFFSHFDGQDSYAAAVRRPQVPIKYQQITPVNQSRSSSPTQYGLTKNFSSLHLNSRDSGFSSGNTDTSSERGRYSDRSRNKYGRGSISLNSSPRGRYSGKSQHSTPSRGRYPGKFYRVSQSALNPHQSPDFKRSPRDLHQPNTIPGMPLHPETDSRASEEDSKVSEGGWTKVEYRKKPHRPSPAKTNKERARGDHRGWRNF
Experimental: as §1

PDGFRB = PDGFRB (Homo sapiens, UniProt P09619)
Experimental: as §1

Measured: IC50

EPHB4, sequence (P54760 16-987): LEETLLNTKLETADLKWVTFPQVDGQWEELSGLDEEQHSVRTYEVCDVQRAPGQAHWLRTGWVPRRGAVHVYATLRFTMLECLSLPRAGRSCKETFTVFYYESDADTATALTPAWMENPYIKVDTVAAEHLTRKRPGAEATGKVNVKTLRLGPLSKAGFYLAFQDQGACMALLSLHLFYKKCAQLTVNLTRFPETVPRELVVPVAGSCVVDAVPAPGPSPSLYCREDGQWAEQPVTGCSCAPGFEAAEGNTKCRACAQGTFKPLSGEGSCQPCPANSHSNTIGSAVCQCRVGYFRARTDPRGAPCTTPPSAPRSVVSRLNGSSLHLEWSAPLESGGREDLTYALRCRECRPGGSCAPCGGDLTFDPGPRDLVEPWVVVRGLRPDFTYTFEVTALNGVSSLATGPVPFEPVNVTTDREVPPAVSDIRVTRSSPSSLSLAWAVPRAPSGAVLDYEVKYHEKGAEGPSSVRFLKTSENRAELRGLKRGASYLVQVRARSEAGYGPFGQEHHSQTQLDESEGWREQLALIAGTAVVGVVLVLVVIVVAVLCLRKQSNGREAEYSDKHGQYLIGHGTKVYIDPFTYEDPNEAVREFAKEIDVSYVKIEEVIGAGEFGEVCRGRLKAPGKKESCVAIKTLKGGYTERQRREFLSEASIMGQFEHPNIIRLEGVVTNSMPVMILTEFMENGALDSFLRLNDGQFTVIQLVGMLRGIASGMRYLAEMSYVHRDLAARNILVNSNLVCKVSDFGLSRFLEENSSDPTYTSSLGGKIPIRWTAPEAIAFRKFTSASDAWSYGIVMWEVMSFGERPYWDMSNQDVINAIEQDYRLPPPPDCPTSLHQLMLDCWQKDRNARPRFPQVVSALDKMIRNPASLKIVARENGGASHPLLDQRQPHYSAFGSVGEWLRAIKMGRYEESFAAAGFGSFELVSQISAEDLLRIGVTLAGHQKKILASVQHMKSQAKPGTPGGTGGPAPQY

CCc1nc(C(N)=O)c(Nc2ccc(N3CCC(Nc4ccccc4)CC3)c(OC)c2)nc1NC1CCOC(C(O)CO)C1 (stereo not drawn) [FLIN-4]
> 10 µM: all assays above
